From patent US20040047885A1, “Use of compounds which make it possible to modify the physicochemical properties of the skin and/or the mucous membranes as agents preventing or reducing the adhesion of microorganisms to the latter” (priority 2000, published 2004)
Like-named read-outs stand apart in the source and are kept apart here.

System: Staphylococcus aureus
Assay type: cell-based
Details: vs water
Description: These compounds are chosen so that the decimal logarithm of the mean number of viable bacteria adhering to reconstructed epidermis, after a test consisting in bringing the said epidermis into contact with the test compound for 2 hours at 37° C., is at least 0.3 less than that obtained by a test carried out with water under the same conditions.
The reconstructed epidermis used in the test indicated above is reconstructed human epidermis, equivalent to human skin, sold by EPISKIN.
The antiadhesion test corresponds to the protocol below:
Before bacterial adhesion, the reconstructed epidermis is brought into contact for 2 hours with 25 mg of the product to be tested at 37° C. 1 ml of bacterial suspension of Staphylococcus aureus at a concentration of […] in Tryptone salt is then added thereto. After incubating for 24 hours at 37° C., the bacterial suspension is emptied and five rinsings are carried out with 1 ml of sterile distilled water. The epidermis, detached from its support, is then ground with the aid of a food processor in 18 ml of Tryptone salt. A decimal dilution is carried out on this suspension in Tryptone salt, and 1 ml of the dilution is then inoculated into 15 ml of Trypticase Soy agar and the medium is incubated for 24 hours at 37° C. The adherent and viable cells are then counted.
This antiadhesion test makes it possible to evaluate the efficacy of molecules alone or of finished products.
The figures presented opposite the compound correspond to the reduction of the decimal logarithm of the mean number of viable Staphylococcus aureus adhering to reconstructed epidermis after treatment with the compound under the conditions defined by the preceding test compared with the decimal logarithm of the mean number of viable Staphylococcus aureus adhering to reconstructed epidermis after treatment with water under the same conditions.

[1] = reconstructed human epidermis (EPISKIN) contacted 2 hours at 37° C. with 25 mg product, then 24 hours with bacterial suspension

Molecule | reduction of the decimal logarithm of the mean number of viable Staphylococcus aureus adhering to reconstructed epidermis compared with water [1] | reduction of the decimal logarithm of the mean number of viable Staphylococcus aureus adhering to reconstructed epidermis compared with water (tested at 5% active substance, epidermis contacted 2 hours at 37° C.)
CCCCCCCCOC(=O)CCCCC(=O)OCCCCCCCC [Dioctyl adipate] | 0.90 | 
Disodium cocoamphodiacetate | 1.34 | 
Ricinoleic monoethanolamide monosulphosuccinate salt |  | 3.84
Tartrate of branched C12-C13 dialcohols | 2.31 | 
